A short description of the data set: Plasma metabolite profiling (GC-MS, LC-MS, SPE-LC-MS) of rats dosed once daily over 28 days; treatment ratios versus untreated control. It counts as in vivo, rat. Here is the method: A group of each 5 male and female rats was dosed once daily with the indicated compounds (see Table 10, below for compounds, applied doses and administration details) over 28 days.
Each dose group in the studies consisted of five rats per sex. Additional groups of each 5 male and female animals served as controls. Before starting the treatment period, animals, which were 62-64 days old when supplied, were acclimatized to the housing and environmental conditions for 7 days. All animals of the animal population were kept under the same constant temperature (20-24±3° C.) and the same constant humidity (30-70%). The animals of the animal population were fed ad libitum. The food to be used was essentially free of chemical or microbial contaminants. Drinking water was also offered ad libitum. Accordingly, the water was free of chemical and microbial contaminants as laid down in the European Drinking Water Directive 98/83/EG. The illumination period was 12 hours light followed by 12 hours darkness (12 hours light, from 6:00 to 18:00, and 12 hours darkness, from 18:00 to 6:00). […] The test substances (compounds) in the Tables 1 to 9 below were dosed and administered as described in the Table 10 above.
In the morning of day 7, 14, and 28, blood was taken from the retro-orbital venous plexus from fasted anaesthetized animals. From each animal, 1 ml of blood was collected with EDTA as anticoagulant. The samples were centrifuged for generation of plasma. All plasma samples were covered with a N2 atmosphere and then stored at −80° C. until analysis.
For mass spectrometry-based metabolite profiling analyses plasma samples were extracted and a polar and a non-polar (lipid) fraction was obtained. For GC-MS analysis, the non-polar fraction was treated with methanol under acidic conditions to yield the fatty acid methyl esters. Both fractions were further derivatised with O-methyl-hydroxyamine hydrochloride and pyridine to convert Oxogroups to O-methyloximes and subsequently with a silylating agent before analysis. In LC-MS analysis, both fractions were reconstituted in appropriate solvent mixtures. HPLC was performed by gradient elution on reversed phase separation columns. Mass spectrometric detection which allows target and high sensitivity MRM (Multiple Reaction Monitoring) profiling in parallel to a full screen analysis was applied as described in WO2003073464.
Steroids and their metabolites were measured by online SPE-LC-MS (Solid phase extraction-LC-MS).
Following comprehensive analytical validation steps, the data for each analyte were normalized against data from pool samples. These samples were run in parallel through the whole process to account for process variability. The significance of treatment group values specific for sex, treatment duration and metabolite was determined by comparing means of the treated groups to the means of the respective untreated control groups using WELCH-test and quantified with treatment ratios versus control and p-values.
The identification of the most important biomarkers per toxicity pattern was done by a ranking of the analytes in the tables below. Therefore the metabolic changes in reference treatments of a given pattern (shown in the table) were compared with changes of the same metabolite in other unrelated treatments. […] The maximum absolute value of the respective TVALUE was taken to indicate the most important metabolite for the pattern.

Where [1] appears, read: plasma, male rats, day 7, high dose, Table 2a.
Where [2] appears, read: plasma, male rats, day 7, high dose, Table 2b.
Setting [3] is: plasma, male rats, day 14, high dose, Table 2b.
[4] abbreviates: plasma, male rats, day 28, high dose, Table 2a.
Setting [5] is: plasma, male rats, day 28, high dose, Table 2b.
The mark [6] stands for this setting: plasma, female rats, day 28, low dose, Table 1c.
Where [7] appears, read: plasma, female rats, day 28, low dose, Table 1d.
Setting [8] is: plasma, male rats, day 28, low dose, Table 1b.

From patent publication US20150031572A1, “MEANS AND METHODS FOR ASSESSING NEURONAL TOXICITY” (priority 2012, published 2015) come the findings set out here.

Marks after values point to notes of the source that are not given here.

Regarding `CC(=O)CCCCn1c(=O)c2c(ncn2C)n(C)c1=O` [Pentoxifylline], under setting [1], the “Choline plasmalogen No 03, ratio versus control” value is 1.01; the “Creatine, ratio versus control” value is recorded as 0.95; the “Isoleucine, ratio versus control” value was 0.93; the “Valine, ratio versus control” value is 0.98*. Besides, under setting [2], the “Adrenaline (Epinephrine), ratio versus control” value is 0.34*; the “DAG (C18:1,C18:2), ratio versus control” value is given as 0.51*; the “Glutamate, ratio versus control” value is given as 0.74*; the “Glycerol, polar fraction, ratio versus control” value was 0.73*. For the same molecule, under setting [2], the “Metanephrine, ratio versus control” value is 0.48*; the “Pyruvate, ratio versus control” value is on record as 0.76*; the “TAG No 07, ratio versus control” value is 0.46*. Moreover, the “Creatine, ratio versus control” value (plasma, male rats, day 14, high dose, Table 2a) is given as 1.36*. Under setting [3], the “Adrenaline (Epinephrine), ratio versus control” value turned out to be 1.34; the “DAG (C18:1,C18:2), ratio versus control” value is on record as 0.88*; the “Glutamate, ratio versus control” value is 0.84; the “Glycerol, polar fraction, ratio versus control” value is reported as 0.74*. In addition, under setting [3], the “Metanephrine, ratio versus control” value is 0.61*; the “Pyruvate, ratio versus control” value was 0.62*; the “TAG No 07, ratio versus control” value is on record as 0.93. In addition, under setting [4], the “Choline plasmalogen No 03, ratio versus control” value is listed as 1.14*; the “Creatine, ratio versus control” value was 1.18*; the “Valine, ratio versus control” value is listed as 1.1*. Further, under setting [5], the “Adrenaline (Epinephrine), ratio versus control” value was 0.33*; the “DAG (C18:1,C18:2), ratio versus control” value is recorded as 0.72*; the “Glutamate, ratio versus control” value is on record as 0.79*; the “Glycerol, polar fraction, ratio versus control” value was 0.8. Moreover, under setting [5], the “Metanephrine, ratio versus control” value is 0.63*; the “Pyruvate, ratio versus control” value is given as 0.74*; the “TAG No 07, ratio versus control” value was 0.74*. Also, where the note is “rat, in vivo”, the “Choline plasmalogen No 03, ratio versus control” value is listed as 1.29* and the “Valine, ratio versus control” value is 1.05*.

With `CCC1(c2ccccc2)C(=O)NC(=O)NC1=O` [Phenobarbital sodium], for the setting “rat, in vivo”, the “3-Indoxylsulfate, ratio versus control” value is given as 1.81 *; the “Coenzyme Q9, ratio versus control” value was 1.08 *; the “Glutamate, ratio versus control” value is listed as 0.78 *; the “Isoleucine, ratio versus control” value is 1.12 *. Under “rat, in vivo”, the “Ketoleucine, ratio versus control” value is recorded as 0.88 *; the “Malate, ratio versus control” value was 0.69 *; the “Pantothenic acid, ratio versus control” value is recorded as 1.33 *; the “Phosphate (inorganic and organic phosphates), ratio versus control” value was 1.17 *. For the setting “rat, in vivo”, the “Phosphatidylcholine (C16:0, C20:4), ratio versus control” value is recorded as 0.99 *; the “Phosphatidylcholine (C16:0, C22_6), ratio versus control” value is recorded as 0.93 *; the “Pyruvate, ratio versus control” value is 0.73 *; the “Valine, ratio versus control” value is given as 1.15 *. Besides, under “rat, in vivo”, the “alpha-Tocopherol, ratio versus control” value is recorded as 1.14 * and the “myo-Inositol, ratio versus control” value is 0.94 *.

For `O=C1NC(=O)C(c2ccccc2)(c2ccccc2)N1` [Phenytoin], under setting [6], the “Coenzyme Q9, ratio versus control” value is reported as 1.22 * and the “Valine, ratio versus control” value is 1.36 *. In addition, under setting [7], the “Cysteine, ratio versus control” value is on record as 0.86 *; the “Glutamate, ratio versus control” value was 0.81 *; the “Pyruvate, ratio versus control” value is 0.65 *; the “myo-Inositol, ratio versus control” value was 0.69 *. Under “plasma, male rats, day 28, low dose, Table 1a”, the “3-Indoxylsulfate, ratio versus control” value is listed as 1.78^. Under setting [8], the “Cysteine, ratio versus control” value is listed as 0.73 *; the “Ketoleucine, ratio versus control” value is 0.76 *; the “Malate, ratio versus control” value is recorded as 0.84 *; the “Phosphatidylcholine (C16:0, C20:4), ratio versus control” value is 0.99 *. In addition, the “Phosphatidylcholine (C16:0, C22_6), ratio versus control” value under setting [8] was 0.95 *. Besides, for the setting “rat, in vivo”, the “Isoleucine, ratio versus control” value was 1.23 *; the “Pantothenic acid, ratio versus control” value is recorded as 1.25 *; the “Phosphate (inorganic and organic phosphates), ratio versus control” value is given as 1.25 *; the “alpha-Tocopherol, ratio versus control” value is listed as 1.16 *.
